These results are taken from ChEMBL document CHEMBL5212743, “Selectivity Literature for EUbOPEN Chemogenomics Library wave 3” (2023).

Experiment [1] has as its target Vascular endothelial growth factor receptor 2 (Homo sapiens, UniProt P35968). Put plainly: Selectivity interaction (Kinase panel (literature or Upstate/Millipore)) EUB0000665a KDR.
The target in experiment [2] is Muscarinic acetylcholine receptor M2 (Homo sapiens, UniProt P08172). The experiment can be described thus: Selectivity interaction (PSP Principial panel 20118+ (panel of GPCRs, transporter, and ion channels)) EUB0000283b CHRM2.
Muscarinic acetylcholine receptor M2, sequence (P08172 whole entry): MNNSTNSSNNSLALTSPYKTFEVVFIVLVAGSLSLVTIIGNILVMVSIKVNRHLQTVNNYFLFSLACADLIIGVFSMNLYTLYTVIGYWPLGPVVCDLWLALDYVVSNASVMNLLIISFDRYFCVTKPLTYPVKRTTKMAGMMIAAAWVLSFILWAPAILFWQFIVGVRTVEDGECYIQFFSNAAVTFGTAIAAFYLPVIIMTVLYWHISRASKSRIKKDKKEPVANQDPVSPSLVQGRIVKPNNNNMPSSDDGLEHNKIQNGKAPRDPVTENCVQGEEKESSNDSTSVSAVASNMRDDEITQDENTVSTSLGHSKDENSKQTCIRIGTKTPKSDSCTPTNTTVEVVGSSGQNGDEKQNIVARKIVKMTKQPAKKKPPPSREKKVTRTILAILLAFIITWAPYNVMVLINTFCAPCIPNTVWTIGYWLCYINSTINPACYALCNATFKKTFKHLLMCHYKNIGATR
A further experiment deals with Histamine H3 receptor (Homo sapiens, UniProt Q9Y5N1). Put plainly: Selectivity interaction (PSP Principial panel 20118+ (panel of GPCRs, transporter, and ion channels)) EUB0000283b HRH3.
In experiment [3] the target is Serine/threonine-protein kinase pim-1 (Homo sapiens, UniProt P11309). Put plainly: Selectivity interaction (PSP kinase safety panel (Eurofins)) EUB0000283b PIM1.
The target of the next experiment is Tribbles homolog 2 (Homo sapiens, UniProt Q92519). Put plainly: Selectivity interaction (PSP kinase safety panel (Eurofins)) EUB0000283b TRIB2.
Tribbles homolog 2, sequence (Q92519 whole entry): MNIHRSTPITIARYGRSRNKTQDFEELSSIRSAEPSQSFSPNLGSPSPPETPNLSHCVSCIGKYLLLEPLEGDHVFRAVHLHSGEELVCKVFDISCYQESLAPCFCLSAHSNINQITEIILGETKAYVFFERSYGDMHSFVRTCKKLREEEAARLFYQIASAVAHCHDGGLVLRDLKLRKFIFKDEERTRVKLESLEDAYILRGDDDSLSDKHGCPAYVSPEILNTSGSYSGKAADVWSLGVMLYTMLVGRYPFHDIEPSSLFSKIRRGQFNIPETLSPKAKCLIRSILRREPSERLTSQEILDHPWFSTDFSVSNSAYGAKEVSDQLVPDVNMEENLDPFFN
The target of experiment [4] is Sodium-dependent noradrenaline transporter (Homo sapiens, UniProt P23975). The experiment can be described thus: Selectivity interaction (PSP Principial panel 20118+ (panel of GPCRs, transporter, and ion channels)) EUB0000283b SLC6A2.
Sodium-dependent noradrenaline transporter, sequence (P23975 whole entry, the tested form may be a part): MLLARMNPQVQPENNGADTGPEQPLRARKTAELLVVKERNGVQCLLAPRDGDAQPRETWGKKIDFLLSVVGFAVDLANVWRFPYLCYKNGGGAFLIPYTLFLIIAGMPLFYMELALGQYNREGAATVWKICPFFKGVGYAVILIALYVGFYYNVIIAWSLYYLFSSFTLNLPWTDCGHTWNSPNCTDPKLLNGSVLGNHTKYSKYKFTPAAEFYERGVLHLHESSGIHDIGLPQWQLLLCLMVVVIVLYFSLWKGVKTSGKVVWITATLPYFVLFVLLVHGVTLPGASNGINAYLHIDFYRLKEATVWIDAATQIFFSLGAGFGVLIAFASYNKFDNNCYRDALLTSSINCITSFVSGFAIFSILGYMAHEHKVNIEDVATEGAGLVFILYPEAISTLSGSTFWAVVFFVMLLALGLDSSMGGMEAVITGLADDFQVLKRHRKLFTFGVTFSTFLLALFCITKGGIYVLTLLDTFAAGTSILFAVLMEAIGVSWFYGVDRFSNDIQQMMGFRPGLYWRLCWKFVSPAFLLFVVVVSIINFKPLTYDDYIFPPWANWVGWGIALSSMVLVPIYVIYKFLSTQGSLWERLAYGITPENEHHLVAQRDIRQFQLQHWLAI
For experiment [5], the target named is T1, YEATS domain-containing protein 2 (Homo sapiens, UniProt Q9ULM3).
T1 sequence (Q9ULM3 whole entry): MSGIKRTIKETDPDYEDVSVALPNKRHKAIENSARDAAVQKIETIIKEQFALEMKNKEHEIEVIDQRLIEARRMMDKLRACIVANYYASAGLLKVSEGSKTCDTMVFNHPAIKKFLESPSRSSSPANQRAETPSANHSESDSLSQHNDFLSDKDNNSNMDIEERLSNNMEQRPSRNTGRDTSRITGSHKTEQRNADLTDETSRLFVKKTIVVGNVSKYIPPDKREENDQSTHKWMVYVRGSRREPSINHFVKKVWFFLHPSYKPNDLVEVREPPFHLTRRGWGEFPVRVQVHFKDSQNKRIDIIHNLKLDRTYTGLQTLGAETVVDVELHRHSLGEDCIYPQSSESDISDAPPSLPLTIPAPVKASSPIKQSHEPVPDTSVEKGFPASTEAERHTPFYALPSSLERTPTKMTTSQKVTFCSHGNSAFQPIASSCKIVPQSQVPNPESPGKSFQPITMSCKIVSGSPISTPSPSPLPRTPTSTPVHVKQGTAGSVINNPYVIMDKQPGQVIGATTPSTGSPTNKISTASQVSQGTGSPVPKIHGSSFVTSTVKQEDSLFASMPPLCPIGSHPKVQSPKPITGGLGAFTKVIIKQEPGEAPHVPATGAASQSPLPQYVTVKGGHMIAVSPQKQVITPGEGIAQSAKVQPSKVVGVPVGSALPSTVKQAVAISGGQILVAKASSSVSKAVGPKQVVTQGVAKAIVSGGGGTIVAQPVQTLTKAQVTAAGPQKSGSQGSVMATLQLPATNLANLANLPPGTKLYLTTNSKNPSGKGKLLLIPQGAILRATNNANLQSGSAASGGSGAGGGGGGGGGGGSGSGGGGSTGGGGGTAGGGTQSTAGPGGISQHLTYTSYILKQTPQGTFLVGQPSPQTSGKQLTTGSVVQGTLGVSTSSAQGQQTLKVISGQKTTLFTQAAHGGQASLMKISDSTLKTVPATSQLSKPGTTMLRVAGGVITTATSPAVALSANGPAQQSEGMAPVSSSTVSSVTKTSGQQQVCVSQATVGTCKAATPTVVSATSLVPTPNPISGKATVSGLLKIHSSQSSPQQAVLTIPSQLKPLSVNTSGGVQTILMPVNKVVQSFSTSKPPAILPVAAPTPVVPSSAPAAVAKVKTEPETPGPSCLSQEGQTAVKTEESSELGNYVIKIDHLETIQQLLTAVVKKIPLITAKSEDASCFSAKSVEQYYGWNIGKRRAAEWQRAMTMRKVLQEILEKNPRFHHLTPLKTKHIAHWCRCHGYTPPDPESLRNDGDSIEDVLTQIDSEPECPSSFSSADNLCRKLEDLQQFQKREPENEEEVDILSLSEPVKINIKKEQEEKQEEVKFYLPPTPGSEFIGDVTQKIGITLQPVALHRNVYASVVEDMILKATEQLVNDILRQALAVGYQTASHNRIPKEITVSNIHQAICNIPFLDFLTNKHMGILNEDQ
The experiment can be described thus: Selectivity interaction (Bromodomain panel (TR-FRET assay)) EUB0000283b YEATS2.

Experiment [6] deals with T2, YEATS domain-containing protein 4 (Homo sapiens, UniProt O95619). The experiment can be described thus: Selectivity interaction (Bromodomain panel (TR-FRET assay)) EUB0000283b YEATS4. Background: Time-resolved FRET reads energy transfer from a long-lived donor to a nearby acceptor.
T2 sequence (O95619 whole entry, the tested form may be a part): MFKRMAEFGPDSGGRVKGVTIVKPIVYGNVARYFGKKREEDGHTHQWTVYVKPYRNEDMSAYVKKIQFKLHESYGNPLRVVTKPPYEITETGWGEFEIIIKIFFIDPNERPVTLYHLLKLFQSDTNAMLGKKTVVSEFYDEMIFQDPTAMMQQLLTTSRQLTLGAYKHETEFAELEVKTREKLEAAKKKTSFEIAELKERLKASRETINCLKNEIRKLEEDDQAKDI
A further experiment has as its target Acetylcholinesterase (Homo sapiens, UniProt P22303). The experiment can be described thus: Selectivity interaction (PSP Principial panel 20118+ (panel of GPCRs, transporter, and ion channels)) EUB0000283b ACHE.
Experiment [7] deals with T3, Protein ENL (Homo sapiens, UniProt Q03111). Put plainly: Selectivity interaction (BioLayer Interferometry assay (BLI)) EUB0000283b MLLT1. A general note: Biolayer interferometry detects binding as a change in optical thickness at a sensor tip.
T3 sequence (Q03111 whole entry): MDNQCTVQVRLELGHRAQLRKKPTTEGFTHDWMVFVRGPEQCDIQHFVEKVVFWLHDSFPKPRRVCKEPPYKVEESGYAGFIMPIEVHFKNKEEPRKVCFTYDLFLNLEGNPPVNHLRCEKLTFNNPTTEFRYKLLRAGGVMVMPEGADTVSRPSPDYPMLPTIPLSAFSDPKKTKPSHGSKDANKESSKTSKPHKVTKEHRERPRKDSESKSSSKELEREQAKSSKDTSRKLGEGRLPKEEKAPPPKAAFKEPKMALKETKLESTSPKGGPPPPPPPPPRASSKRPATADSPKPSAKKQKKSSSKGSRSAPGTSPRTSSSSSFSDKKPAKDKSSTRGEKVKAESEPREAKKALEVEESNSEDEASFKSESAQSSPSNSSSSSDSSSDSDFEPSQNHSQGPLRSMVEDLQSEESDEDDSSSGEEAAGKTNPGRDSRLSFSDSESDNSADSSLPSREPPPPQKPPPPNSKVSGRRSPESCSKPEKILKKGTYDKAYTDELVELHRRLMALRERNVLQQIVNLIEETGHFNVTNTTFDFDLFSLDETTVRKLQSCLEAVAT
Experiment [8] deals with T3, Protein ENL. Put plainly: Selectivity interaction (ITC) EUB0000283b MLLT1.
The target of experiment [9] is Chromatin remodeling regulator CECR2 (Homo sapiens, UniProt Q9BXF3). Put plainly: Selectivity interaction (Bromodomain panel (TR-FRET assay)) EUB0000283b CECR2.
In experiment [10] the target is Bromodomain-containing protein 1 (Homo sapiens, UniProt O95696). The experiment can be described thus: Selectivity interaction (AlphaScreen) EUB0000323b BRD1. In general terms: In Alpha technology, singlet oxygen from a donor bead excites a nearby acceptor bead.
Experiment [11] deals with 5-hydroxytryptamine receptor 6 (Homo sapiens) (UniProt P50406). As to conditions: at 10 µM.
5-hydroxytryptamine receptor 6 (Homo sapiens), sequence (P50406 whole entry): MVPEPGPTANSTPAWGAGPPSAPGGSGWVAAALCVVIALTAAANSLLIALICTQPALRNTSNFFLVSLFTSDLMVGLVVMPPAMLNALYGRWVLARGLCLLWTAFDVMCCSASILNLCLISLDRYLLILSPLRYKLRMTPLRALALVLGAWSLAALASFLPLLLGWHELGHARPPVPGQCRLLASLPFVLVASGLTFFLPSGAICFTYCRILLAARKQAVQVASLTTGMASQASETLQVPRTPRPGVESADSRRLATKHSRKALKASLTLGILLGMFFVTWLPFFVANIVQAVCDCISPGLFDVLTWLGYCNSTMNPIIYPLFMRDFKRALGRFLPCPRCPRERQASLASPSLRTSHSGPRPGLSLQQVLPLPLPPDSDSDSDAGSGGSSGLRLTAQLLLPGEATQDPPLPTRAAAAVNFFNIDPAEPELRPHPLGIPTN
Experiment [12] concerns the target T4, Adenosine receptor A1 (Homo sapiens) (UniProt P30542).
T4 sequence (whole entry): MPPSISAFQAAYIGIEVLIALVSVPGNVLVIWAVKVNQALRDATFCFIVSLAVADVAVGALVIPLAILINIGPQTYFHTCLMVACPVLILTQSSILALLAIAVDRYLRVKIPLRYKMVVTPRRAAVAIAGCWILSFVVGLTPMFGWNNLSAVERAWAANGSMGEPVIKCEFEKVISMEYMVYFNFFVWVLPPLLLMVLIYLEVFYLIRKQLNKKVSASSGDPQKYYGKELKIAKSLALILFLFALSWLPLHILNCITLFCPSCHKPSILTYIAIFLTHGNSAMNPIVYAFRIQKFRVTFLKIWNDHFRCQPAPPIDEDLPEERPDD
As to conditions: at 10 µM.

The target in experiment [13] is T5, Adenosine receptor A3 (Homo sapiens) (UniProt P0DMS8).
T5 sequence (whole entry): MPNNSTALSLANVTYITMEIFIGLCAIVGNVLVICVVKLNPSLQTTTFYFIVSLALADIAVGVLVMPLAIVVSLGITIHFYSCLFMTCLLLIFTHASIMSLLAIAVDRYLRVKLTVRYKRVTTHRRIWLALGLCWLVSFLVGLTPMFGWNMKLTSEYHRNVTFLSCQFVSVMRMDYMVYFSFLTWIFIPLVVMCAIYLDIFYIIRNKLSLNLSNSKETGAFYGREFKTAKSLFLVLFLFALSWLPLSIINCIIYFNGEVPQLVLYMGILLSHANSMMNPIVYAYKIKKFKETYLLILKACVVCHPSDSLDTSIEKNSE
As to conditions: at 10 µM.

Experiment [14] deals with Bromodomain-containing protein 1 (Homo sapiens) (UniProt O95696).
The target of experiment [15] is Bromodomain-containing protein 4 (Homo sapiens, UniProt O60885).
A further experiment concerns the target Peregrin (Homo sapiens) (UniProt P55201).
Experiment [16] addresses Bromodomain and PHD finger-containing protein 3 (Homo sapiens) (UniProt Q9ULD4).
Experiment [17] deals with 5-hydroxytryptamine receptor 2B (Homo sapiens, UniProt P41595). Put plainly: Selectivity interaction (CEREP panel (cellular receptors and 30 other enzymes)) EUB0000199c HTR2B.
5-hydroxytryptamine receptor 2B, sequence (P41595 whole entry): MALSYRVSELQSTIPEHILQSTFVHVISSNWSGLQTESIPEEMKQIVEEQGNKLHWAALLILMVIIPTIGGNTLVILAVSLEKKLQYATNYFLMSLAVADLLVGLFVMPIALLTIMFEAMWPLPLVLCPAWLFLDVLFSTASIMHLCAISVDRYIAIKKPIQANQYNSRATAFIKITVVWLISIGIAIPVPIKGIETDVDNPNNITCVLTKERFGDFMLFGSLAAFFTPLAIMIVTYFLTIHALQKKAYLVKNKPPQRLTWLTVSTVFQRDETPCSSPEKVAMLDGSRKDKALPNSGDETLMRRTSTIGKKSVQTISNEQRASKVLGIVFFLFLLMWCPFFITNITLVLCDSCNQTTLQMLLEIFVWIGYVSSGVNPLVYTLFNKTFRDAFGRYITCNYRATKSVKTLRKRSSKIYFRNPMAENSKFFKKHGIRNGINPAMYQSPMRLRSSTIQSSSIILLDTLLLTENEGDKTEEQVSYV
The target of experiment [18] is T6, Alpha-1A adrenergic receptor (Homo sapiens, UniProt P35348).
T6 sequence (P35348 whole entry): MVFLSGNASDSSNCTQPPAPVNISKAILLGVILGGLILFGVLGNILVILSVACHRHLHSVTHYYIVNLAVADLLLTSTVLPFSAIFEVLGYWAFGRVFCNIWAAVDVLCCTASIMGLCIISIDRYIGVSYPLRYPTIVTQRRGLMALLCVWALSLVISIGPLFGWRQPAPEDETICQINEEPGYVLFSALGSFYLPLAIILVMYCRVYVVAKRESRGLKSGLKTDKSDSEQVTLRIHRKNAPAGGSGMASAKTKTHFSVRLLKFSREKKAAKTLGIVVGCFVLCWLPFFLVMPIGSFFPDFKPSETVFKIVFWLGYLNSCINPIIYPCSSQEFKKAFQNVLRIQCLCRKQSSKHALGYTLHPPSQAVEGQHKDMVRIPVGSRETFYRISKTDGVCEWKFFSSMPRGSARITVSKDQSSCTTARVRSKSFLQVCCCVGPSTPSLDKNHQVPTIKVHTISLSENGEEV
The experiment can be described thus: Selectivity interaction (CEREP panel (cellular receptors and 30 other enzymes)) EUB0000199c ADRA1A.

Experiment [19] has as its target T7, Alpha-1B adrenergic receptor (Homo sapiens, UniProt P35368).
T7 sequence (P35368 whole entry): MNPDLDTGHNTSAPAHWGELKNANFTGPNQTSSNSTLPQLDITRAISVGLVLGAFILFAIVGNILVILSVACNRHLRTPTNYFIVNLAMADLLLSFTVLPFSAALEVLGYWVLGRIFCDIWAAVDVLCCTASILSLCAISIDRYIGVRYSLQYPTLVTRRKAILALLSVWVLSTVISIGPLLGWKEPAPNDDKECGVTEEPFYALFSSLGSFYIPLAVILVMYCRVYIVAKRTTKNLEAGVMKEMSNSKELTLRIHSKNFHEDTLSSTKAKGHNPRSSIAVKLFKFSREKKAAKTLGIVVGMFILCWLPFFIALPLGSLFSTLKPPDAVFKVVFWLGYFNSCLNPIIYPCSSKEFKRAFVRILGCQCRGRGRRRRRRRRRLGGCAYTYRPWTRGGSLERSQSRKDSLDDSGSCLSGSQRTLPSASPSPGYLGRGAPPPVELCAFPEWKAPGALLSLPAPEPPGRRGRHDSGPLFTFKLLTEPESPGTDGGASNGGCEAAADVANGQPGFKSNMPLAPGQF
The experiment can be described thus: Selectivity interaction (CEREP panel (cellular receptors and 30 other enzymes)) EUB0000199c ADRA1B.

In experiment [20] the target is Kappa-type opioid receptor (Homo sapiens, UniProt P41145). The experiment can be described thus: Selectivity interaction (CEREP panel (cellular receptors and 30 other enzymes)) EUB0000199c OPRK1.
Experiment [21] has as its target SWI/SNF-related matrix-associated actin-dependent regulator of chromatin subfamily A member 2 (Homo sapiens) (UniProt P51531). Put plainly: Selectivity interaction (Bromodomain panel (DSF assay)) EUB0000199c SMARCA2.
Experiment [22] concerns the target T1, YEATS domain-containing protein 2. Put plainly: Selectivity interaction (Enzyme panel (PDEs, ion channels, and GPCRS, HTRF assay)) EUB0000731a YEATS2.
Experiment [23] has as its target T2, YEATS domain-containing protein 4. The experiment can be described thus: Selectivity interaction (Enzyme panel (PDEs, ion channels, and GPCRS, HTRF assay)) EUB0000731a YEATS4.
The target of experiment [24] is Protein ENL (Homo sapiens) (UniProt Q03111). The experiment can be described thus: Selectivity interaction (DSF assay) EUB0000731a MLLT1.
Protein ENL (Homo sapiens), sequence (Q03111 whole entry): as the sequence (Q03111 whole entry) above
Experiment [25] addresses T8, Protein AF-9 (Homo sapiens, UniProt P42568).
The target in experiment [26] is T8, Protein AF-9. This is another data set of the same source.
Experiment [27] deals with Protein AF-9 (Homo sapiens) (UniProt P42568).
Protein AF-9 (Homo sapiens), sequence (P42568 whole entry, the tested form may be a part): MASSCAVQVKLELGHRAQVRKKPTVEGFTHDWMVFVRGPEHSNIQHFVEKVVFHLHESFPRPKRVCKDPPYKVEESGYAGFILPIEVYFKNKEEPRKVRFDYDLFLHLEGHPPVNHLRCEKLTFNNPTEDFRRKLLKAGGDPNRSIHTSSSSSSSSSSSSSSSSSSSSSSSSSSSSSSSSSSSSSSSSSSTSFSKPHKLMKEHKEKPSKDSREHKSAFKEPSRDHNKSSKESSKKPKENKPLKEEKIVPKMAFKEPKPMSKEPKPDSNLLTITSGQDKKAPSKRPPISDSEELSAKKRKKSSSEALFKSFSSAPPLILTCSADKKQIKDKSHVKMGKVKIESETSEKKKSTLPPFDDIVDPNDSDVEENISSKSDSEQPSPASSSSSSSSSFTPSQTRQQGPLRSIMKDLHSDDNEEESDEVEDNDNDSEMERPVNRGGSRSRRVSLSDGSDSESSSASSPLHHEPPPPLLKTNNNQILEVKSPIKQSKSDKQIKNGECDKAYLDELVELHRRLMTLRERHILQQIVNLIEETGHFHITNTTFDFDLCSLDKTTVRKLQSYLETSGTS
Experiment [28] concerns the target T1, YEATS domain-containing protein 2. Put plainly: Selectivity interaction (HTRF-based inhibition assay) EUB0000732a YEATS2.
Experiment [29] has as its target T2, YEATS domain-containing protein 4. Put plainly: Selectivity interaction (HTRF-based inhibition assay) EUB0000732a YEATS4.

SMILES strings stand for the structures. Bounds are passed on as bounds.

T8 sequence (P42568 whole entry): as the sequence (P42568 whole entry, the tested form may be a part) above
Peregrin (Homo sapiens), sequence (P55201 whole entry): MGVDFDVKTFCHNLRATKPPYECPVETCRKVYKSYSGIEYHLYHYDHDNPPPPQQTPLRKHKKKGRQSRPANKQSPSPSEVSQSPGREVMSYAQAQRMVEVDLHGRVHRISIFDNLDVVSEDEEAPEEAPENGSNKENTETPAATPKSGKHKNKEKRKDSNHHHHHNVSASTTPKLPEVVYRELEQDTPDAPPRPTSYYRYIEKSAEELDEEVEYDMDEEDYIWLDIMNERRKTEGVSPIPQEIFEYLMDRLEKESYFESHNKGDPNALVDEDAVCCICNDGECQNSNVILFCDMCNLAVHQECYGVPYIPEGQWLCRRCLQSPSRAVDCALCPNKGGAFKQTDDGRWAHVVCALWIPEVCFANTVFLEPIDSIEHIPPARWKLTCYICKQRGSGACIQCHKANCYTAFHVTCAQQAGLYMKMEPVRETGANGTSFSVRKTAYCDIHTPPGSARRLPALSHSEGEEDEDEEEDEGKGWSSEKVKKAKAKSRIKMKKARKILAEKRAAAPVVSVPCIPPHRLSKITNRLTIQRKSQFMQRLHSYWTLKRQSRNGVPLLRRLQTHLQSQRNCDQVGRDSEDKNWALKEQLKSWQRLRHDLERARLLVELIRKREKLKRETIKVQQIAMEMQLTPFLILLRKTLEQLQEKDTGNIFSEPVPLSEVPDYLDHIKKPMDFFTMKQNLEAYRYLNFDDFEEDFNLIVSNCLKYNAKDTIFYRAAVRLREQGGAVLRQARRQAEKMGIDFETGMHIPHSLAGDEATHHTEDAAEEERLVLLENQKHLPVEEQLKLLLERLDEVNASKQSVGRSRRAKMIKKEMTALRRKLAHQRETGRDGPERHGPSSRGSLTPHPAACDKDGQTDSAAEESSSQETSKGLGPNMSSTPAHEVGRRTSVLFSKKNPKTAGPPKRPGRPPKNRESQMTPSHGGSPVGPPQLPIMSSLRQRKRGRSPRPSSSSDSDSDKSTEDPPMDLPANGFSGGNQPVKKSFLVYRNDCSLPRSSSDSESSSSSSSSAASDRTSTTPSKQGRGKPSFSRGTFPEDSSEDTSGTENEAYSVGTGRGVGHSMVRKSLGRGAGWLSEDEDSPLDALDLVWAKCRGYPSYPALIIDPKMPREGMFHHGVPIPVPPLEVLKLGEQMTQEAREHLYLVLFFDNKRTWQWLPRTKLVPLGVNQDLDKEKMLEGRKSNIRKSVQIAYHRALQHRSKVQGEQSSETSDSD

Regarding `Cn1cc(-c2[nH]c3cc(NC(=O)[C@H](N)C4CCCCC4)cc4c3c2C=NNC4=O)cn1`, in [1], the half-maximal inhibitory concentration (IC50) (as a rule, the midpoint of a concentration-inhibition curve) was 8 nM.
Consider `C[C@H]1CCCN1Cc1nc2cc(NC(=O)c3ccc4cnccc4c3)ccc2[nH]1`, for which the IC50 is 1800 nM in [2]; 290 nM at Histamine H3 receptor; 8600 nM in experiment [3]; 3500 nM at Tribbles homolog 2; 8700 nM in experiment [4]; > 20000 nM in [5]. Further, the IC50 in experiment [6] is > 20000 nM; at Acetylcholinesterase, 250 nM; in [9], > 40000 nM. Moreover, the Kd (as a rule, a measure of binding affinity in units of concentration) amounted to 75 nM at Protein ENL [7] and 109 nM on Protein ENL [8].
Take `COc1cc2c(cc1NS(=O)(=O)c1ccc(Br)cc1C)n(C)c(=O)n2C`: it took 2200 nM to reach half-maximal inhibition in [10] (IC50). Besides, the % of inhibition in experiment [11] was determined as 54%; in [12], 82%; in experiment [13], 53%. The dTm is 3.1 K in [14], 2.1 K in [15], 6.5 K at Peregrin (Homo sapiens) and 3.3 K in [16].
As to `O=C(/C=C/N1C[C@H]2C[C@@H]1CN2c1ccccn1)c1ccccc1O`, the IC50 in [17] amounted to 4000 nM; in [18] it was 440 nM; in experiment [19], 3600 nM; in [20], 13000 nM. Also, the dTm in experiment [21] was determined as 9.2 K.
For the molecule `CN(C)C(=O)c1ccc(-c2cc(C(=O)N[C@@H]3CCc4ccccc43)no2)cc1O`, the half-inhibitory concentration (IC50) in experiment [22] and in [23] was > 40000 nM in each case. In addition, the dTm in [24] was determined as 3.61 K; in [27], 5.13 K. In addition, the Kd on Protein AF-9 [25] amounted to 110 nM; on Protein AF-9 [26] it was 76 nM.
Consider `CN(C)C(=O)c1ccc(-c2cc(C(=O)N(C)C3CCCC3)no2)cc1O`, for which the IC50 in experiment [28] and in experiment [29] was > 30000 nM in each case.
